Read-outs that look alike come from different tables or passages of the source.
Test system: participants with migraine
Details: human, in vivo
Source text: Difference between groups in participant withdrawals from treatment • 2.

CC(C)NCC(O)COc1cccc2ccccc12 (centres unmarked) [Propranolol, propranolol]
Discontinuing the study (n/N) (4 week): 0/10 | Discontinuing the study (percent) (4 week): (0.0%) | Discontinuing the study (n/N) (8 week): 0/10 | Discontinuing the study (percent) (8 week): (0.0%) | Discontinuing the study (n/N) (12 week): 0/10 | Discontinuing the study (percent) (12 week): (0.0%) | Deceased (n/N) (16 week): 0/10 | Deceased (percent) (16 week): (0.0%)

— patent publication US12661345B2, “Compositions for the treatment of hypertension” (The George Institute for Global Health, priority 2017, dated 2026)
